MIC data for 17 compounds are collected here from patent US9133219B2, “Bicyclic antibiotics” (Basilea Pharmaceutica AG, priority 2009, dated 2015).

Holding throughout (type): cell-based
Experiment [1] has as its system Streptococcus pneumoniae. Put plainly: Anti-microbial activity assay, MIC by broth microdilution (CAMHB with 5% horse serum). To be noted: Streptococcus pneumoniae; strain ATCC49619; CAMHB with 5% horse serum; read-out: MIC Streptococcus pneumoniae ATCC49619. As for the experimental part: (§1) Anti-Microbial Activity Assay.
(§2) The antibacterial activity of compounds is determined by the minimal inhibitory concentration (MIC) method. MICs for all bacteria except pneumococci and Haemophilus influenzae are obtained by broth microdilution with cation-adjusted Mueller-Hinton broth (CAMHB; BBL), according to CLSI guidelines (National Committee for Clinical Laboratory Standards. 2003. Methods for dilution antimicrobial susceptibility tests for bacteria that grow aerobically, 5th ed.; approved standard M7-A6. National Committee for Clinical Laboratory Standards, Wayne, Pa.), with the following modifications: (i) for pneumococci CAMHB is supplemented with 5% (^v/v) horse serum; (ii) for Haemophilus influenzae CAMHB is supplemented with 5% (^v/v) Fildes enrichment (BBL) (Pankuch, G. A., Hoellman, D. B., Lin, G., Bajaksouzian, S., Jacobs, M. R., and Appelbaum, P. C. 1998. Activity of HMR 3647 compared to those of five agents against Haemophilus influenzae and Moraxella catarrhalis by MIC determination and time-kill assay. Antimicrob. Agents Chemother. 42:3032-3034). Microtiter plates are incubated at 35° C. in ambient air for 20 to 24 h, then inspected using an illuminated microtiter plate reader fitted with a magnifying mirror (MIC 2000; Cooke Laboratory Products, Alexandria, Va.). Compounds of the present invention are tested against several bacteria strains comprising some Acinetobacter baumannii, Enterococcus faecalis, Enterococcus faecitan, Escherichia coli, Haemophilus influenzae, Klebsiella pneumoniae, Pseudomonas aeruginosa, Staphylococcus aureus, Staphylococcus epidermidis and Streptococcus pneumoniae.

The subject of experiment [2] is Staphylococcus aureus and/or Staphylococcus epidermidis. The experiment in a line: MIC summary statement, staphylococci. The settings on record: generally, for Staphylococcus aureus and/or Staphylococcus epidermidis. As for the experimental part:
as §1, §2

For experiment [3], the system named is Staphylococcus epidermidis. The experiment in a line: Anti-microbial activity assay, MIC by broth microdilution. The settings on record: Staphylococcus epidermidis; strain ATCC14990. As for the experimental part: as §1, §2
A general note: In broth dilution the organism is exposed to a series of concentrations in liquid medium.

Experiment [4] has as its system Staphylococcus aureus. Described as above. To be noted: Staphylococcus aureus; strain ATCC29213; read-out: MIC Staphylococcus aureus ATCC29213. As for the experimental part:
as §1, §2

Experiment [5] deals with Escherichia coli. The experiment is described as above. The settings on record: Escherichia coli; strain UB1005; read-out: MIC Escherichia coli UB1005. As for the experimental part:
as §1, §2

Values after ≈ are worked out from the molar mass of the structure shown.

In the case of `COc1ccc2ncc(OCCN3CCC(NC(=O)c4ccc5c(c4)NC(=O)CS5)CC3)nc2c1` [Example 1, 3-oxo-3,4-dihydro-2H-benzo[1,4]thiazine-6-carboxylic acid {1-[2-(7-methoxy-quinoxalin-2-yloxy)-ethyl]-piperidin-4-yl}-amide], the MIC in experiment [1] was 4 µg/mL (≈ 8.1 µM); in experiment [2], no more than 2 µg/mL; in experiment [3], no more than 2 µg/mL; in experiment [4], no more than 2 µg/mL; in experiment [5], 8 µg/mL (≈ 16.2 µM).
`COc1ccc2ncc(OCC[C@H]3CC[C@H](NC(=O)c4ccc5c(n4)NC(=O)CO5)CC3)cc2n1` [Example 3, 3-oxo-3,4-dihydro-2H-pyrido[3,2-b][1,4]oxazine-6-carboxylic acid {trans-4-[2-(6-methoxy-[1,5]naphthyridin-3-yloxy)-ethyl]-cyclohexyl}-amide]: the MIC in experiment [1] is 16 µg/mL (≈ 33.5 µM); in experiment [2] it was no more than 2 µg/mL; in experiment [3], no more than 2 µg/mL; in experiment [4] it was no more than 2 µg/mL; in experiment [5], greater than 32 µg/mL.
For `COc1ccc2ncc(OCC[C@H]3CC[C@H](NC(=O)c4ccc5c(c4)NC(=O)CS5)CC3)nc2c1` [Example 4, 3-oxo-3,4-dihydro-2H-benzo[1,4]thiazine-6-carboxylic acid {trans-4-[2-(7-methoxy-quinoxalin-2-yloxy)-ethyl]-cyclohexyl}-amide], the MIC is greater than 32 µg/mL in experiment [1]; no more than 2 µg/mL in experiment [2]; no more than 2 µg/mL in experiment [3]; no more than 2 µg/mL in experiment [4]; greater than 32 µg/mL in experiment [5].
On to `COc1ccc2ncc(OCC[C@H]3CC[C@H](NC(=O)c4ccc5c(c4)NC(=O)CO5)CC3)cc2n1` [Example 6, 3-oxo-3,4-dihydro-2H-benzo[1,4]oxazine-6-carboxylic acid {trans-4-[2-(6-methoxy-[1,5]naphthyridin-3-yloxy)-ethyl]-cyclohexyl}-amide], for which the MIC is 4 µg/mL (≈ 8.39 µM) in experiment [1]; no more than 2 µg/mL in experiment [2]; no more than 2 µg/mL in experiment [3]; no more than 2 µg/mL in experiment [4]; greater than 32 µg/mL in experiment [5].
`O=C1CSc2ccc(C(=O)N[C@H]3CC[C@H](CCOc4cnc5ccc(F)cc5n4)CC3)cc2N1` [Example 7, 3-oxo-3,4-dihydro-2H-benzo[1,4]thiazine-6-carboxylic acid {trans-4-[2-(7-fluoro-quinoxalin-2-yloxy)-ethyl]-cyclohexyl}-amide]: the MIC is greater than 32 µg/mL in experiment [1]; no more than 2 µg/mL in experiment [2]; greater than 32 µg/mL in experiment [3]; no more than 2 µg/mL in experiment [4]; greater than 32 µg/mL in experiment [5].
Regarding `COc1ccc2ncc(OCCCN3CC(NC(=O)c4ccc5c(c4)NC(=O)CS5)C3)nc2c1` [Example 8, 3-oxo-3,4-dihydro-2H-benzo[1,4]thiazine-6-carboxylic acid {1-[3-(7-methoxy-quinoxalin-2-yloxy)-propyl]-azetidin-3-yl}-amide], the minimum inhibitory concentration (MIC) was 16 µg/mL (≈ 33.4 µM) in experiment [1]; no more than 2 µg/mL in experiment [2]; 4 µg/mL (≈ 8.34 µM) in experiment [3]; no more than 2 µg/mL in experiment [4]; 16 µg/mL (≈ 33.4 µM) in experiment [5].
Take `COc1ccc2ncc(OC(CN3CCC(NC(=O)c4ccc5c(c4)NC(=O)CS5)CC3)C(F)(F)F)nc2c1` (stereo not shown) [Example 14, 3-oxo-3,4-dihydro-2H-benzo[1,4]thiazine-6-carboxylic acid {1-[3,3,3-trifluoro-2-(7-methoxy-quinoxalin-2-yloxy)-propyl]-piperidin-4-yl}-amide]: the MIC in experiment [1] is 8 µg/mL (≈ 14.2 µM); in experiment [2] it was no more than 2 µg/mL; in experiment [3] it was 8 µg/mL (≈ 14.2 µM); in experiment [4], no more than 2 µg/mL; in experiment [5], greater than 32 µg/mL.
With `COc1ccc2ncc(OCCN3CCC(NC(=O)c4cc5c(cc4Cl)SCC(=O)N5)CC3)nc2c1` [Example 15, 7-chloro-3-oxo-3,4-dihydro-2H-benzo[1,4]thiazine-6-carboxylic acid {1-[2-(7-methoxy-quinoxalin-2-yloxy)-ethyl]-piperidin-4-yl}-amide], the MIC in experiment [1] is 8 µg/mL (≈ 15.2 µM); in experiment [2], no more than 2 µg/mL; in experiment [3] it was no more than 2 µg/mL; in experiment [4] it was no more than 2 µg/mL; in experiment [5] it was 4 µg/mL (≈ 7.58 µM).
For `COc1ccc2ncc(OCCN3CCC(NC(=O)c4cc5c(cc4Cl)SCC(=O)N5)CC3)cc2n1` [Example 16, 7-chloro-3-oxo-3,4-dihydro-2H-benzo[1,4]thiazine-6-carboxylic acid {1-[2-(6-methoxy-[1,5]naphthyridin-3-yloxy)-ethyl]-piperidin-4-yl}-amide], the MIC is 8 µg/mL (≈ 15.2 µM) in experiment [1]; no more than 2 µg/mL in experiment [2]; 4 µg/mL (≈ 7.58 µM) in experiment [3]; no more than 2 µg/mL in experiment [4]; 8 µg/mL (≈ 15.2 µM) in experiment [5].
Take `COc1ccc2ccc(OCCN3CCC(NC(=O)c4ccc5c(n4)NC(=O)CS5)CC3)nc2c1` [Example 17, 3-oxo-3,4-dihydro-2H-pyrido[3,2-b][1,4]thiazine-6-carboxylic acid {1-[2-(7-methoxy-quinolin-2-yloxy)-ethyl]-piperidin-4-yl}-amide]: the MIC was 16 µg/mL (≈ 32.4 µM) in experiment [1]; no more than 2 µg/mL in experiment [2]; 4 µg/mL (≈ 8.1 µM) in experiment [3]; no more than 2 µg/mL in experiment [4]; greater than 32 µg/mL in experiment [5].
For the compound `COc1cnc2ccc(OCCN3CCC(NC(=O)c4ccc5c(c4)NC(=O)CS5)CC3)nc2c1` [Example 18, 3-oxo-3,4-dihydro-2H-benzo[1,4]thiazine-6-carboxylic acid {1-[2-(7-methoxy-[1,5]naphthyridin-2-yloxy)-ethyl]-piperidin-4-yl}-amide], the MIC in experiment [1] is 4 µg/mL (≈ 8.1 µM); in experiment [2], no more than 2 µg/mL; in experiment [3], no more than 2 µg/mL; in experiment [4], no more than 2 µg/mL; in experiment [5] it was 8 µg/mL (≈ 16.2 µM).
On to `COc1cnc2ccc(OCCN3CCC(NC(=O)c4cc5c(cc4Cl)SCC(=O)N5)CC3)nc2c1` [Example 19, 7-chloro-3-oxo-3,4-dihydro-2H-benzo[1,4]thiazine-6-carboxylic acid {1-[2-(7-methoxy-[1,5]naphthyridin-2-yloxy)-ethyl]-piperidin-4-yl}-amide], for which the MIC in experiment [1] was 8 µg/mL (≈ 15.2 µM); in experiment [2] it was no more than 2 µg/mL; in experiment [3], no more than 2 µg/mL; in experiment [4], no more than 2 µg/mL; in experiment [5], 4 µg/mL (≈ 7.58 µM).
On to `COc1ccc2ncc(OCCN3CCC(NC(=O)c4ccc5c(n4)NC(=O)CS5)CC3)nc2c1` [Example 20, 3-oxo-3,4-dihydro-2H-pyrido[3,2-b][1,4]thiazine-6-carboxylic acid {1-[2-(7-methoxy-quinoxalin-2-yloxy)-ethyl]-piperidin-4-yl}-amide], for which the MIC in experiment [1] was greater than 32 µg/mL; in experiment [2] it was no more than 2 µg/mL; in experiment [3] it was no more than 2 µg/mL; in experiment [4], no more than 2 µg/mL; in experiment [5] it was greater than 32 µg/mL.
Regarding `COc1ccc2ncc(C(=O)OC[C@H]3CC[C@H](NC(=O)c4ccc5c(c4)NC(=O)CS5)CC3)cc2c1` [Example 28, 6-methoxy-quinoline-3-carboxylic acid trans-4-[(3-oxo-3,4-dihydro-2H-benzo[1,4]thiazine-6-carbonyl)-amino]-cyclohexylmethyl ester], the MIC is greater than 32 µg/mL in experiment [1]; no more than 2 µg/mL in experiment [2]; no more than 2 µg/mL in experiment [3]; no more than 2 µg/mL in experiment [4]; greater than 32 µg/mL in experiment [5].
Turning to `COc1ccc2ncc(C(=O)OC[C@H]3CC[C@H](NCc4ccc5c(c4)OCCO5)CC3)cc2n1` [Example 29, 6-methoxy-[1,5]naphthyridine-3-carboxylic acid trans-4-[(2,3-dihydro-benzo[1,4]dioxin-6-ylmethyl)-amino]-cyclohexylmethyl ester], the MIC in experiment [1] was 4 µg/mL (≈ 8.63 µM); in experiment [2], no more than 2 µg/mL; in experiment [3], no more than 2 µg/mL; in experiment [4] it was no more than 2 µg/mL; in experiment [5], greater than 32 µg/mL.
Take `COc1ccc2ncc(C(=O)OC[C@H]3CC[C@H](NC(=O)c4ccc5c(n4)NC(=O)CO5)CC3)cc2n1` [Example 30, 6-methoxy-[1,5]naphthyridine-3-carboxylic acid trans-4-[(3-oxo-3,4-dihydro-2H-pyrido[3,2-b][1,4]oxazine-6-carbonyl)-amino]-cyclohexylmethyl ester]: the MIC was greater than 32 µg/mL in experiment [1]; no more than 2 µg/mL in experiment [2]; 4 µg/mL (≈ 8.14 µM) in experiment [3]; no more than 2 µg/mL in experiment [4]; greater than 32 µg/mL in experiment [5].
Take `COc1ccc2ncc(C(=O)OC[C@H]3CC[C@H](NCCSc4cccs4)CC3)cc2n1` [Example 31, 6-methoxy-[1,5]naphthyridine-3-carboxylic acid trans-4-[2-(thiophen-2-ylsulfanyl)-ethylamino]-cyclohexylmethyl ester]: the MIC in experiment [1] was 8 µg/mL (≈ 17.5 µM); in experiment [2], no more than 2 µg/mL; in experiment [3], 4 µg/mL (≈ 8.74 µM); in experiment [4], no more than 2 µg/mL; in experiment [5], greater than 32 µg/mL.

The MIC is the smallest concentration in the dilution series that meets the test's criterion for growth inhibition.
